{"source": "patent US20110151020A1", "about": "“ACTIVE SUBSTANCE COMBINATION WITH GEMCITABINE FOR THE TREATMENT OF EPITHELIAL CANCER” (priority 2008, published 2011)", "key": {"[1]": {"tested_on": "side population (SP) cells", "assay": "Side population (Hoechst 33342 exclusion)", "type": "cell-based, human", "experimental": "First, pancreatic CSC were clonally expanded as CSC-enriched spheres (FIGS. 18C1-18C5). Floating spheres were treated in ultra low adhesion 6-well plates. After completion of the treatment, five randomly selected high-power fields were analyzed."}, "[2]": {"tested_on": "primary human pancreatic cancer tissue", "assay": "In vivo treatment of implanted patient pancreatic tumor tissue with gemcitabine plus SB431542", "set-up": "species or system mice", "conditions": "treatment from day 7, assessed day 28", "experimental": "FIG. 33: In vivo treatment with the Alk4/7 inhibitor SB431542. This illustrates Nodal/Activin inhibition to eliminate primary human pancreatic CSC in vivo. Tumor tissue from patient with pancreatic cancer was implanted into immunocompromised mice. Treatment was started on day 7 after implantation. Mice were randomized to gemcitabine alone or gemcitabine plus SB431542. Tumor growth was assessed on day 28."}, "[3]": {"tested_on": "CD133+ pancreatic cancer stem cells (L3.6pl cells)", "assay": "CD133 content by flow cytometry in L3.6pl pancreatic cancer cells", "type": "cell-based, human", "conditions": "48 hours of therapy; Gemcitabine 100 ng/ml", "experimental": "In this experiment, potentially effective substances for the targeted elimination of CD133^+ pancreatic cancer stem cells (CSC) were screened by means of flow cytometry following 48 hours of therapy. […] As a Gemcitabine concentration of 100 ng/ml was the lowest concentration capable of achieving a strong relative enrichment for CD133^+ cells through depletion of CD133^− cells, this concentration was chosen for subsequent experiments.\nHuman pancreatic cancer cell line. The highly metastatic human pancreatic cell line L3.6pl was maintained in DMEM medium (Invitrogen, Karlsruhe, Germany) with 12% Fetal Calf Serum (Biochrom, Berlin, Germany), Glutamax (Invitrogen), non-essential amino acids, and vitamins (all from PAN, Aidenbach, Germany) (Hermann et al., 2007, supra). Cultures were kept no longer than 4 weeks after recovery from frozen stocks. CSC spheres were cultured in DMEM-F12 supplemented with B27 (Gibco, Karlsruhe, Germany) and FGF-2 (PeproTech EC, London, United Kingdom) (Hermann et al., 2007, supra).\nCytometry. Pancreatic CSC were identified by CD133/1-APC or CD133-PE (Miltenyi, Bergisch-Gladbach, Germany) (Hermann et al., 2007, supra). Side population experiments were performed as described by Goodell et al. (1996) (see Goodell et al., 1996, J Exp Med 183, 1797-1806) and cells were identified by exclusion of the vital dye Hoechst 33342. To detect activation of the PI3K/Akt/mTOR pathway by means of the phosphorylation status of the s6 ribosomal protein (s6rp), cells cultivated with standard medium were stained with a rabbit anti-phospho-S6 ribosomal protein antibody (Cell Signalling Technology, Danvers, Mass.).\n(§1) In vitro treatment of pancreatic cancer cells. […] For the evaluation of the in vivo tumorigenicity, […] L3.6pl cells were pretreated with the respective regimen and the remaining viable cells were orthotopically implanted into the pancreas of nude mice and evaluated on day 35. For the systemic infusion assay, cells were labelled with the Qtracker 800 labelling kit (Invitrogen) according to the manufacturer's instructions, and 5×10^5 cells were injected intravenously into mice. After 4 weeks, explanted lungs were scanned for metastases with a near-infrared imaging platform (Odyssey, Li-cor, Lincoln, Nebr.). Positive signals were verified by histology (H&E staining).\nUsing SB431542, a specific inhibitor of the receptors for Nodal and Activin, ALK-4 and -7 respectively, it was investigated whether the content of the CD133(+) population is affected by inhibition of Activin/Nodal signaling. As mutations affecting the TGF-superfamily pathway are very common in pancreatic neoplasms, pancreatic cell lines harboring different mutations in this pathway were screened (Table 1)."}, "[4]": {"tested_on": "primary human pancreatic cancer tissue", "assay": "In vivo triple combination treatment of implanted patient pancreatic tumor tissue", "set-up": "species or system mice", "conditions": "treatment from day 21; assessed up to 100 days", "method": "Tumor tissue from patient with pancreatic cancer was implanted into immunocompromised mice. Treatment was started on day 21 after implantation. Mice were randomized to gemcitabine alone or combination therapy. Tumor growth was assessed up to 100 days."}, "pancreatic cancer cells": {"tested_on": "pancreatic cancer cells", "assay": "Transmigration assay (modified Boyden chamber, SDF-1 stimulus)", "type": "cell-based, human", "conditions": "SDF-1 as migratory stimulus"}, "[5]": {"tested_on": "L3.6pl pancreatic cancer cells", "assay": "Tumorigenicity after in vitro pre-treatment and orthotopic implantation", "type": "in vivo, mice", "experimental": "After 96 hours of pretreatment, the remaining viable cells were orthotopically implanted into the pancreas of mice, which received no further treatment in vivo.\nCultivated pancreatic cancer cells were exposed to either Gemcitabine alone representing clinical standard therapy, SB431542 alone, or a combination of Gemcitabine and SB431542 in the above given respective concentrations. After 96 hours of pretreatment, the remaining viable cells were orthotopically implanted into the pancreas of mice, which received no further treatment in vivo.\nA prerequisite of CSC is their ability to form tumours in secondary recipients. Due to the limited number of cancer (stem) cells that can be obtained from primary tissues, it is virtually impossible to reproducibly perform in vivo treatment experiments with fresh patient-derived cells. Therefore, all subsequent in vivo experiments were performed with the established L3.6pl pancreatic cancer cells. The design of the experiment is illustrated in FIG. 20A. […] After 4 days of pretreatment, the surviving cells were orthotopically implanted into the pancreas, which received no further in vivo treatment. Tumorigenicity was first determined by PET scans on day 30 (FIGS. 20B, 20C; left panel) and by final macroscopic and microscopic histological evaluation on day 35 (FIGS. 20B, 20C; right panel).\nAnimals and Orthotopic Implantation of Tumour Cells. Single-cell suspensions were orthotopically implanted into the pancreas of female NMRI nu/nu mice (Janvier, Le Genest-Saint-Isle, France) (Hermann et al., 2007, supra). Size and weight of the pancreatic tumours were monitored.\nas §1"}, "[6]": {"tested_on": "orthotopically implanted tumour cells", "assay": "In vivo treatment of orthotopic tumours with Gemcitabine and SB431542", "set-up": "species or system mice", "experimental": "Seven days after orthotopic implantation of tumour cells, therapy with either Gemcitabine alone or in combination with targeted Nodal/Activin inhibition by SB431542 was initiated. The double combination therapy was stopped after 14 days of treatment, the single Gemcitabine treatment was continued until sacrifice of the animals. 35 days after tumour cell treatment, PET scans were done and evaluation of tumour volume was performed on day 42."}, "[7]": {"tested_on": "pretreated Qtracker-labeled pancreatic cancer cells", "assay": "Systemic infusion assay of pretreated cells (lung metastasis)", "type": "in vivo, mice", "conditions": "cells pretreated in vitro, systemically infused; lungs scanned", "description": "Recently, the inventors have shown that the chemokine receptor CXCR4 and its specific lig- and Stromal-Derived Factor-1 (SDF-1) plays a pivotal role in metastasis of pancreatic CSC (see Hermann et al., 2007, supra). […] Pretreated and Qtracker-labeled cells were systemically infused. Seeded cells were tracked using near infrared scanning of the lungs as the primary target organ. Positive signals were confirmed by histological analysis.\nas §1"}}}
{"compound": "Nc1ccn(C2OC(CO)C(O)C2(F)F)c(=O)n1", "note": "(stereo not shown) [Gemcitabine, 4-amino-1-[3,3-difluoro-4-hydroxy-5-(hydroxymethyl)tetrahydrofuran-2-yl]-1H-pyrimidin-2-one]", "values": [{"measurement": "side population (SP) cells", "setting": "[1]", "value": "unaffected"}, {"measurement": "tumor response / regression", "setting": "[2]", "value": "strong response"}, {"measurement": "CD133+ cell content", "setting": "[3]", "value": "marked enrichment"}, {"measurement": "tumor growth", "setting": "[4]", "value": "virtually unrestricted growth"}, {"measurement": "migratory activity", "setting": "pancreatic cancer cells", "value": "unable to significantly reduce"}, {"measurement": "tumour take rate / tumorigenicity", "setting": "[5]; 4 days of pretreatment, PET day 30, histology day 35", "value": "did not generate any effect"}, {"measurement": "tumorigenicity after in vitro pre-treatment", "setting": "[5]; 96 hours pretreatment, 100 ng/ml Gemcitabine, 5 μM SB431542", "value": "close to no effect"}, {"measurement": "tumour size", "setting": "[6]; mouse, in vivo", "value": "reduction of tumour size"}, {"measurement": "tumour formation / tumour incidence", "setting": "[6]; therapy from day 7, combination 14 days, PET day 35, volume day 42", "value": "unaffected"}, {"measurement": "metastatic activity in vivo", "setting": "[7]", "value": "all mice receiving Gemcitabine-pretreated cells showed evidence for metastasis"}]}
